Reference: patent US11180462B2, “Microbiocidal oxadiazole derivatives” (SYNGENTA PARTICIPATIONS AG, priority 2015, dated 2021)

Experiments:
[1] = system: Puccinia recondita f. Sp. Tritici; test: Fungicidal activity against Puccinia recondita f. sp. tritici / wheat / leaf disc preventative (brown rust); type: in vivo; details: foliar, 200 ppm in the applied formulation, wheat leaf segments, preventative, compared to untreated control leaf disks, read-out: disease control
Procedure, shortened: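 Preventative leaf-segment test, wheat cv. Kanzler on water agar. Spray compound at 200 ppm, inoculate with spores 1 day later; 19° C., 75% rh, 12/12 h light. Read-out: % disease control vs untreated, 7 to 9 days after application.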

[2] = system: Glomerella lagenarium (Colletotrichum lagenarium); test: Fungicidal activity against Glomerella lagenarium (Colletotrichum lagenarium) liquid culture / cucumber / preventative (anthracnose); type: cell-based; details: Colletotrichum orbiculare; 20 ppm in the applied formulation; liquid culture (PDB), growth inhibition measured photometrically after 3 to 4 days; compared to untreated control; read-out: disease control
Procedure, shortened: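 Photometric read-out of fungal growth after 2–7 days, expressed as percent antifungal activity versus untreated check. Cryo-stored conidia in PDB; compound at 20 ppm; dark, 24 °C, 96% RH.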

[3] = system: Puccinia recondita f. Sp. Tritici; test: Fungicidal activity against Puccinia recondita f. sp. tritici / wheat / leaf disc curative (brown rust); type: in vivo; details: foliar, 24 h, 200 ppm in the applied formulation, wheat leaf segments, curative (applied 1 day after inoculation), compared to untreated control leaf disks, read-out: disease control
Procedure, shortened: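 % disease control vs untreated, scored 6–8 d post-application. Wheat cv. Kanzler segments, spore-inoculated, dark 19° C/75% RH; formulated cpd applied 1 d post-inoc; then 19° C, 75% RH, 12 h L/12 h D.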

Phakopsora Pachyrhizi = test: Fungicidal activity against Phakopsora pachyrhizi / soybean / leaf disc preventative (Asian soybean rust); type: in vivo; details: foliar, 200 ppm in the applied formulation, soybean leaf disks, compared to untreated control leaf disks, read-out: disease control
Procedure, shortened: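 Preventative soybean leaf-disc test: discs on water agar sprayed with diluted formulated compound, inoculated one day later with spores on the lower surface. Held 24–36 h dark at 20°C, 75% rh, then 12 h light/day; percent disease control versus untreated discs scored 12–14 days after application.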

COCCCC(=O)N(Cc1ccc(-c2noc(C(F)(F)F)n2)cc1)C(C)C [Compound 1.681, N-isopropyl-4-methoxy-N-[[4-[5-(trifluoromethyl)-1,2,4-oxadiazol-3-yl]phenyl]methyl]-butanamide]
≥ 80%: pest or weed control at 200 ppm [1] | inhibition of growth at 20 ppm [2] | pest or weed control at 200 ppm [3] | pest or weed control at 200 ppm (Phakopsora Pachyrhizi)

CC(C)N(Cc1ccc(-c2noc(C(F)(F)F)n2)cc1)C(=O)C1CCCO1 (stereo not shown) [Compound 1.682, N-isopropyl-N-[[4-[5-(trifluoromethyl)-1,2,4-oxadiazol-3-yl]phenyl]methyl]-tetrahydrofuran-2-carboxamide]
≥ 80%: pest or weed control at 200 ppm [1] | inhibition of growth at 20 ppm [2] | pest or weed control at 200 ppm [3] | pest or weed control at 200 ppm (Phakopsora Pachyrhizi)

CC(C)N(Cc1ccc(-c2noc(C(F)(F)F)n2)cc1)C(=O)CC#N [Compound 1.683, 2-cyano-N-isopropyl-N-[[4-[5-(trifluoromethyl)-1,2,4-oxadiazol-3-yl]phenyl]methyl]-acetamide]
≥ 80%: pest or weed control at 200 ppm [1] | inhibition of growth at 20 ppm [2] | pest or weed control at 200 ppm [3] | pest or weed control at 200 ppm (Phakopsora Pachyrhizi)

CC(C)N(Cc1ccc(-c2noc(C(F)(F)F)n2)cc1)C(=O)C1(C#N)CC1 [Compound 1.684, 1 cyano-N-isopropyl-N-[[4-[5-(trifluoromethyl)-1,2,4-oxadiazol-3-yl]phenyl]methyl]-cyclopropane-carboxamide]
≥ 80%: pest or weed control at 200 ppm [1] | inhibition of growth at 20 ppm [2] | pest or weed control at 200 ppm [3] | pest or weed control at 200 ppm (Phakopsora Pachyrhizi)

COC(C)C(=O)N(Cc1ccc(-c2noc(C(F)(F)F)n2)cc1)C(C)C (stereo not shown) [Compound 1.685, N-isopropyl-2-methoxy-N-[[4-[5-(trifluoromethyl)-1,2,4-oxadiazol-3-yl]phenyl]methyl]-propanamide]
≥ 80%: pest or weed control at 200 ppm [1] | inhibition of growth at 20 ppm [2] | pest or weed control at 200 ppm [3] | pest or weed control at 200 ppm (Phakopsora Pachyrhizi)

CC(C)N(Cc1ccc(-c2noc(C(F)(F)F)n2)cc1)C(=O)CC(F)(F)F [Compound 1.686, 3,3,3-trifluoro-N-isopropyl-N-[[4-[5-(trifluoromethyl)-1,2,4-oxadiazol-3-yl]phenyl]methyl]-propanamide]
≥ 80%: pest or weed control at 200 ppm [1] | inhibition of growth at 20 ppm [2] | pest or weed control at 200 ppm [3] | pest or weed control at 200 ppm (Phakopsora Pachyrhizi)

CC(=O)N(Cc1ccc(-c2noc(C(F)(F)F)n2)cc1)C(C)C [Compound 1.687, N-isopropyl-N-[[4-[5-(trifluoromethyl)-1,2,4-oxadiazol-3-yl]phenyl]methyl]-acetamide]
≥ 80%: pest or weed control at 200 ppm [1] | inhibition of growth at 20 ppm [2] | pest or weed control at 200 ppm [3] | pest or weed control at 200 ppm (Phakopsora Pachyrhizi)

CC(C)N(Cc1ccc(-c2noc(C(F)(F)F)n2)cc1)C(=O)CC1CC1 [Compound 1.688, 2-cycloopropyl-N-isopropyl-N-[[4-[5-(trifluoromethyl)-1,2,4-oxadiazol-3-yl]phenyl]methyl]-acetamide]
≥ 80%: pest or weed control at 200 ppm [1] | inhibition of growth at 20 ppm [2] | pest or weed control at 200 ppm [3] | pest or weed control at 200 ppm (Phakopsora Pachyrhizi)

CC(C)C(=O)N(Cc1ccc(-c2noc(C(F)(F)F)n2)cc1)CC(F)(F)F [Compound 1.689, 2-methyl-N-(2,2,2-trifluoroethyl)-N-[[4-[5-(trifluoromethyl)-1,2,4-oxadiazol-3-yl]phenyl]methyl]-propanamide]
≥ 80%: pest or weed control at 200 ppm [1] | inhibition of growth at 20 ppm [2] | pest or weed control at 200 ppm [3] | pest or weed control at 200 ppm (Phakopsora Pachyrhizi)

O=C(C1CC1(F)F)N(Cc1ccc(-c2noc(C(F)(F)F)n2)cc1)CC(F)(F)F (stereo not shown) [Compound 1.690, 2,2-difluoro-N-(2,2,2-trifluoroethyl)-N-[[4-[5-(trifluoromethyl)-1,2,4-oxadiazol-3-yl]phenyl]methyl]-cyclopropane-carboxamide]
≥ 80%: pest or weed control at 200 ppm [1] | inhibition of growth at 20 ppm [2] | pest or weed control at 200 ppm [3] | pest or weed control at 200 ppm (Phakopsora Pachyrhizi)

O=C(C1CCOC1)N(Cc1ccc(-c2noc(C(F)(F)F)n2)cc1)CC(F)(F)F (stereo not shown) [Compound 1.692, N-(2.2.2-trifluoroethyl)-N-[[4-[5-(trifluoromethyl)-1,2,4-oxadiazol-3-yl]phenyl]methyl]-tetrahydrofuran-3-carboxamide]
≥ 80%: pest or weed control at 200 ppm [1] | inhibition of growth at 20 ppm [2] | pest or weed control at 200 ppm [3] | pest or weed control at 200 ppm (Phakopsora Pachyrhizi)

CC1(C(=O)N(Cc2ccc(-c3noc(C(F)(F)F)n3)cc2)CC(F)(F)F)CC1 [Compound 1.696, 1-methyl-N-(2,2,2-trifluoroethyl)-N-[[4-[5-(trifluoromethyl)-1,2,4-oxadiazol-3-yl]phenyl]methyl]-cyclopropane-carboxamide]
≥ 80%: pest or weed control at 200 ppm [1] | inhibition of growth at 20 ppm [2] | pest or weed control at 200 ppm [3] | pest or weed control at 200 ppm (Phakopsora Pachyrhizi)

CC1(C(=O)N(Cc2ccc(-c3noc(C(F)(F)F)n3)cc2)CC(F)(F)F)COC1 [Compound 1.698, 3-methyl-N-(2,2,2-trifluoroethyl)-N-[[4-[5-(trifluoromethyl)-1,2,4-oxadiazol-3-yl]phenyl]methyl]-oxetane-3-carboxamide]
≥ 80%: pest or weed control at 200 ppm [1] | inhibition of growth at 20 ppm [2] | pest or weed control at 200 ppm [3] | pest or weed control at 200 ppm (Phakopsora Pachyrhizi)

N#CCC(=O)N(Cc1ccc(-c2noc(C(F)(F)F)n2)cc1)CC(F)(F)F [Compound 1.701, 2-cyano-N-(2,2,2-trifluoroethyl)-N-[[4-[5-(trifluoromethyl)-1,2,4-oxadiazol-3-yl]phenyl]methyl]-acetamide]
≥ 80%: pest or weed control at 200 ppm [1] | inhibition of growth at 20 ppm [2] | pest or weed control at 200 ppm [3] | pest or weed control at 200 ppm (Phakopsora Pachyrhizi)

N#CC1(C(=O)N(Cc2ccc(-c3noc(C(F)(F)F)n3)cc2)CC(F)(F)F)CC1 [Compound 1.702, 1-cyano-N-(2,2,2-trrfluoroethyl)-N-[[4-[5-(trifluoromethyl)-1,2,4-oxadiazol-3-yl]phenyl]methyl]-cyclopropane-carboxamide]
≥ 80%: pest or weed control at 200 ppm [1] | inhibition of growth at 20 ppm [2] | pest or weed control at 200 ppm [3] | pest or weed control at 200 ppm (Phakopsora Pachyrhizi)

COC(C)C(=O)N(Cc1ccc(-c2noc(C(F)(F)F)n2)cc1)CC(F)(F)F (stereo not shown) [Compound 1.703, 2-methoxy-N-(2,2,2-trifluoroethyl)-N-[[4-[5-(trifluoromethyl)-1,2,4-oxadiazol-3-yl]phenyl]methyl]-propanamide]
≥ 80%: pest or weed control at 200 ppm [1] | inhibition of growth at 20 ppm [2] | pest or weed control at 200 ppm [3] | pest or weed control at 200 ppm (Phakopsora Pachyrhizi)

CC(=O)N(Cc1ccc(-c2noc(C(F)(F)F)n2)cc1)CC(F)(F)F [Compound 1.705, N-(2,2,2-trifluoroethyl)-N-[[4-[5-(trifluoromethyl)-1,2,4-oxadiazol-3-yl]phenyl]methyl]-acetamide]
≥ 80%: pest or weed control at 200 ppm [1] | inhibition of growth at 20 ppm [2] | pest or weed control at 200 ppm [3] | pest or weed control at 200 ppm (Phakopsora Pachyrhizi)

CC(C)C(=O)N(CCO)Cc1ccc(-c2noc(C(F)(F)F)n2)cc1 [Compound 1.707, N-(2-hydroxyethyl)-2-methyl-N-[[4-[5-(trifluoromethyl)-1,2,4-oxadiazol-3-yl]phenyl]methyl]-propanamide]
≥ 80%: pest or weed control at 200 ppm [1] | inhibition of growth at 20 ppm [2] | pest or weed control at 200 ppm [3] | pest or weed control at 200 ppm (Phakopsora Pachyrhizi)

O=C(C1CCC1)N(CCO)Cc1ccc(-c2noc(C(F)(F)F)n2)cc1 [Compound 1.714, N-(2-hydroxyethyl)-N-[[4-[5-(trifluoromethyl)-1,2,4-oxadiazol-3-yl]phenyl]methyl]-cyclobutane-carboxamide]
≥ 80%: pest or weed control at 200 ppm [1] | inhibition of growth at 20 ppm [2] | pest or weed control at 200 ppm [3] | pest or weed control at 200 ppm (Phakopsora Pachyrhizi)

CC1CC1C(=O)N(CCO)Cc1ccc(-c2noc(C(F)(F)F)n2)cc1 (stereo not shown) [Compound 1.717, N-(2-hydroxyethyl)-2-methyl-N-[[4-[5-(trifluoromethyl)-1,2,4-oxadiazol-3-yl]phenyl]methyl]-cyclopropane-carboxamide]
≥ 80%: pest or weed control at 200 ppm [1] | inhibition of growth at 20 ppm [2] | pest or weed control at 200 ppm [3] | pest or weed control at 200 ppm (Phakopsora Pachyrhizi)

CC1(C(=O)N(CCO)Cc2ccc(-c3noc(C(F)(F)F)n3)cc2)CC1 [Compound 1.718, N-(2-hydroxyethyl)-1-methyl-N-[[4-[5-(trifiuoromethyl)-1,2,4-oxadiazol-3-yl]phenyl]methyl]-cyctopropane-carboxamide]
≥ 80%: pest or weed control at 200 ppm [1] | inhibition of growth at 20 ppm [2] | pest or weed control at 200 ppm [3] | pest or weed control at 200 ppm (Phakopsora Pachyrhizi)

CCC(COC)C(=O)N(CCO)Cc1ccc(-c2noc(C(F)(F)F)n2)cc1 (stereo not shown) [Compound 1.723, N-(2-hydroxyethyl)-2-(methoxymethyl)-N-[[4-[5-(trifluoromethyl)-1,2,4-oxadiazol-3-yl]phenyl]methyl]-butanamide]
≥ 80%: pest or weed control at 200 ppm [1] | inhibition of growth at 20 ppm [2] | pest or weed control at 200 ppm [3] | pest or weed control at 200 ppm (Phakopsora Pachyrhizi)
